Usually IC50 stands for the concentration that gives 50% inhibition.

The target in this test is Trypsin (Homo sapiens, UniProt P07477+P07478+P35030). The experiment in a line: Inhibition of trypsin (unknown origin) using Nalpha-benzoyl-D/L-arginine-4-nitroanilide hydrochloride as substrate preincubated for 5 mins followed by substrate addition and measured upto 30 mins by absorbance based assay. The class given is protein assay.
Compound `N=C(N)NCCC[C@@H](CO)NC(=O)[C@H](CCc1ccc(O)cc1)NC(=O)[C@H](O)Cc1ccc(O)cc1` came in with an IC50 above 200000 nM.
`N=C(N)NCCC[C@@H](C=O)NC(=O)[C@H](CCc1ccc(O)cc1)NC(=O)[C@H](O)Cc1ccc(O)cc1` displayed an IC50 of 100 nM.
Next, `CC(=O)N[C@@H](CC(C)C)C(=O)N[C@@H](CC(C)C)C(=O)N[C@H](C=O)CCCNC(=N)N` [LEUPEPTIN]: 600 nM.

The record behind these values is ChEMBL document CHEMBL5137092, “Nostosin G and Spiroidesin B from the Cyanobacterium Dolichospermum sp. NIES-1697” (J Nat Prod, 2022).
